Data from US9833497B2, “Human originated EGF domain proteins and use of the same” (CHENGDU SOURCEBIO LIMITED-LIABILITY COMPANY, priority 2013, dated 2017).

Key:
Assay type in all cases: cell-based
Proteus vulgaris = assay: MIC against Gram-negative bacteria: Proteus vulgaris; settings: for MIC against P. vulgaris / MIC P. vulgaris: 5×10^5 CFU/mL
How it was run: (§1)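 LB broth cultures at McFarland 0.5, spun down, resuspended, diluted to 5×10^5 CFU/mL final. Two-fold serial dilutions of purified human EGF domain proteins, triplicate. 37° C, 175 rpm shaking. Endpoint: no visible growth.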

Proteus mirabilis = assay: MIC against Gram-negative bacteria: Proteus mirabilis; settings: for MIC against P. mirabilis / MIC P. mirabilis: 5×10^5 CFU/mL
How it was run: as §1

Citrobacter diversus = assay: MIC against Gram-negative bacteria: Citrobacter diversus; settings: for MIC against C. diversus / MIC C. diversus: 5×10^5 CFU/mL
How it was run: as §1

Pseudomonas aeruginosa = assay: MIC against Gram-negative bacteria: Pseudomonas aeruginosa; settings: for MIC against P. aeruginosa / MIC P. aeruginosa: 5×10^5 CFU/mL
How it was run: as §1

Moraxella catarrhalis = assay: MIC against Gram-negative bacteria: Moraxella catarrhalis; settings: for MIC against M. catarrhalis / MIC M. catarrhalis: 5×10^5 CFU/mL
How it was run: as §1

Enterobacter cloacae = assay: MIC against Gram-negative bacteria: Enterobacter cloacae; settings: for MIC against E. cloacae / MIC E. cloacae: 5×10^5 CFU/mL
How it was run: as §1

Klebsiella pneumonia = assay: MIC against Gram-negative bacteria: Klebsiella pneumonia; settings: for MIC against K. pneumonia / MIC K. pneumonia: 5×10^5 CFU/mL
How it was run: as §1

E. coli BL21 = assay: MIC against Gram-negative bacteria: E. coli BL21; settings: for MIC against E. coli BL21 / MIC E. coli BL21: 5×10^5 CFU/mL
How it was run: as §1

E. coli DH5α = assay: Antibacterial activity: MIC and growth curve against E. coli DH5α in 96-well plate; settings: minimal inhibitory concentration against E. coli DH5α; 96-well plate, 5×10^5 CFU/mL, 37° C., judged after 8 h
How it was run: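 Log-phase DH5α (OD600 about 0.5, 37° C, 185 rpm in LB) was pelleted, resuspended in fresh LB and seeded at 5×10^5 CFU/mL with recombinant protein at 50, 25 and 12.5 μg/mL (two-fold series), in triplicate. Plates were shaken at 175 rpm, 37° C, and OD600 was read every 30 min. MIC was the lowest concentration with no growth.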

Serratia marcescens = assay: MIC against Gram-negative bacteria: Serratia marcescens; settings: for MIC against S. marcescens / MIC S. marcescens: 5×10^5 CFU/mL
How it was run: as §1

Aeromonas hydrophila = assay: MIC against Gram-negative bacteria: Aeromonas hydrophila; settings: for MIC against A. hydrophila / MIC A. hydrophila: 5×10^5 CFU/mL
How it was run: as §1

[1] = E. coli BL21, 10 h cultivation at 37° C.

## PRT1432 (PARTCHSPAHSPCHIHAHCLFERNGAVSCQCNVGWAGNGNVCG; listed as Homo sapiens)
Proteus vulgaris; Proteus vulgaris, 10 h cultivation at 37° C.
  MIC against P. vulgaris: 25 µg/mL
Proteus mirabilis; Proteus mirabilis, 10 h cultivation at 37° C.
  MIC against P. mirabilis: 50 µg/mL
Citrobacter diversus; Citrobacter diversus, 10 h cultivation at 37° C.
  MIC against C. diversus: 12.5 µg/mL
Pseudomonas aeruginosa; Pseudomonas aeruginosa, 10 h cultivation at 37° C.
  MIC against P. aeruginosa: 50 µg/mL
Moraxella catarrhalis; Moraxella catarrhalis, 10 h cultivation at 37° C.
  MIC against M. catarrhalis: 25 µg/mL
Enterobacter cloacae; Enterobacter cloacae, 10 h cultivation at 37° C.
  MIC against E. cloacae: 50 µg/mL
Klebsiella pneumonia; Klebsiella pneumonia, 10 h cultivation at 37° C.
  MIC against K. pneumonia: 12.5 µg/mL
E. coli BL21; [1]
  MIC against E. coli BL21: 12.5 µg/mL
E. coli DH5α
  MIC: 25 µg/mL
Serratia marcescens; Serratia marcescens, 10 h cultivation at 37° C.
  MIC against S. marcescens: 12.5 µg/mL
Aeromonas hydrophila; Aeromonas hydrophila, 10 h cultivation at 37° C.
  MIC against A. hydrophila: 25 µg/mL

## PRT520 (CRCNAGGSFSEVCHSQTGQCECRANVQGQRCDKCKAGTFGLQSARGCVP; listed as Homo sapiens)
Proteus vulgaris; 96-well plate, 37° C., 10 h
  MIC against P. vulgaris: 12.5 µg/mL
Proteus mirabilis; 96-well plate, 37° C., 10 h
  MIC against P. mirabilis: 25 µg/mL
Citrobacter diversus; 96-well plate, 37° C., 10 h
  MIC against C. diversus: 25 µg/mL
Pseudomonas aeruginosa; 96-well plate, 37° C., 10 h
  MIC against P. aeruginosa: 25 µg/mL
Moraxella catarrhalis; 96-well plate, 37° C., 10 h
  MIC against M. catarrhalis: 50 µg/mL
Enterobacter cloacae; 96-well plate, 37° C., 10 h
  MIC against E. cloacae: 25 µg/mL
Klebsiella pneumonia; 96-well plate, 37° C., 10 h
  MIC against K. pneumonia: 12.5 µg/mL
E. coli BL21; 96-well plate, 37° C., 10 h
  MIC against E. coli BL21: 12.5 µg/mL
E. coli DH5α
  MIC: 25 µg/mL
Serratia marcescens; 96-well plate, 37° C., 10 h
  MIC against S. marcescens: 25 µg/mL
Aeromonas hydrophila; 96-well plate, 37° C., 10 h
  MIC against A. hydrophila: 12.5 µg/mL

## PRT1019 (NLDDCIAATCAPGSTCIDRVGSFSCLCPPGRTGLLCH; listed as Homo sapiens)
Proteus vulgaris; P. vulgaris, 10 h cultivation at 37° C.
  MIC: 12.5 µg/mL
Proteus mirabilis; P. mirabilis, 10 h cultivation at 37° C.
  MIC: 50 µg/mL
Citrobacter diversus; C. diversus, 10 h cultivation at 37° C.
  MIC: 50 µg/mL
Pseudomonas aeruginosa; P. aeruginosa, 10 h cultivation at 37° C.
  MIC: 12.5 µg/mL
Moraxella catarrhalis; M. catarrhalis, 10 h cultivation at 37° C.
  MIC: 12.5 µg/mL
Enterobacter cloacae; E. cloacae, 10 h cultivation at 37° C.
  MIC: 50 µg/mL
Klebsiella pneumonia; K. pneumonia, 10 h cultivation at 37° C.
  MIC: 25 µg/mL
E. coli BL21; [1]
  MIC: 50 µg/mL
E. coli DH5α
  MIC: 12.5 µg/mL
Serratia marcescens; S. marcescens, 10 h cultivation at 37° C.
  MIC: 25 µg/mL
Aeromonas hydrophila; A. hydrophila, 10 h cultivation at 37° C.
  MIC: 12.5 µg/mL

## PRT470 (KCPQPCRNGGKCIGKSKCKCSKGYQGDLCS; listed as Homo sapiens)
Proteus vulgaris; 96-well plate, 37° C., 10 h
  MIC against P. vulgaris: 12.5 µg/mL
Proteus mirabilis; 96-well plate, 37° C., 10 h
  MIC against P. mirabilis: 50 µg/mL
Citrobacter diversus; 96-well plate, 37° C., 10 h
  MIC against C. diversus: 12.5 µg/mL
Pseudomonas aeruginosa; 96-well plate, 37° C., 10 h
  MIC against P. aeruginosa: 50 µg/mL
Moraxella catarrhalis; 96-well plate, 37° C., 10 h
  MIC against M. catarrhalis: 25 µg/mL
Enterobacter cloacae; 96-well plate, 37° C., 10 h
  MIC against E. cloacae: 50 µg/mL
Klebsiella pneumonia; 96-well plate, 37° C., 10 h
  MIC against K. pneumonia: 12.5 µg/mL
E. coli BL21; 96-well plate, 37° C., 10 h
  MIC against E. coli BL21: 12.5 µg/mL
E. coli DH5α
  MIC: 50 µg/mL
Serratia marcescens; 96-well plate, 37° C., 10 h
  MIC against S. marcescens: 50 µg/mL
Aeromonas hydrophila; 96-well plate, 37° C., 10 h
  MIC against A. hydrophila: 25 µg/mL

## PRT612 (CPCPGGSSCAVVPKTKEVVCTNCPTGTTGKRCELCDDGYFGDPLGRNGPVRLCRL; listed as Homo sapiens)
Proteus vulgaris; 96-well plate, 37° C., 10 h
  MIC P. vulgaris: 12.5 µg/mL
Proteus mirabilis; 96-well plate, 37° C., 10 h
  MIC P. mirabilis: 25 µg/mL
Citrobacter diversus; 96-well plate, 37° C., 10 h
  MIC C. diversus: 25 µg/mL
Pseudomonas aeruginosa; 96-well plate, 37° C., 10 h
  MIC P. aeruginosa: 25 µg/mL
Moraxella catarrhalis; 96-well plate, 37° C., 10 h
  MIC M. catarrhalis: 50 µg/mL
Enterobacter cloacae; 96-well plate, 37° C., 10 h
  MIC E. cloacae: 25 µg/mL
Klebsiella pneumonia; 96-well plate, 37° C., 10 h
  MIC K. pneumonia: 50 µg/mL
E. coli BL21; 96-well plate, 37° C., 10 h
  MIC E. coli BL21: 12.5 µg/mL
E. coli DH5α
  MIC: 25 µg/mL
Serratia marcescens; 96-well plate, 37° C., 10 h
  MIC S. marcescens: 25 µg/mL
Aeromonas hydrophila; 96-well plate, 37° C., 10 h
  MIC A. hydrophila: 12.5 µg/mL

## PRT716 (TEYTCEDNVNPCGDDAYCNQIKTSVFCRCKPGFQRNMKNRQCE; listed as Homo sapiens)
Proteus vulgaris; 96-well plate, 37° C., 10 h
  MIC P. vulgaris: 50 µg/mL
Proteus mirabilis; 96-well plate, 37° C., 10 h
  MIC P. mirabilis: 25 µg/mL
Citrobacter diversus; 96-well plate, 37° C., 10 h
  MIC C. diversus: 25 µg/mL
Pseudomonas aeruginosa; 96-well plate, 37° C., 10 h
  MIC P. aeruginosa: 25 µg/mL
Moraxella catarrhalis; 96-well plate, 37° C., 10 h
  MIC M. catarrhalis: 12.5 µg/mL
Enterobacter cloacae; 96-well plate, 37° C., 10 h
  MIC E. cloacae: 25 µg/mL
Klebsiella pneumonia; 96-well plate, 37° C., 10 h
  MIC K. pneumonia: 12.5 µg/mL
E. coli BL21; 96-well plate, 37° C., 10 h
  MIC E. coli BL21: 50 µg/mL
E. coli DH5α
  MIC: 25 µg/mL
Serratia marcescens; 96-well plate, 37° C., 10 h
  MIC S. marcescens: 12.5 µg/mL
Aeromonas hydrophila; 96-well plate, 37° C., 10 h
  MIC A. hydrophila: 50 µg/mL
